# Results from PubChem BioAssay AID1919015 (Molecular Pharmacology Branch, DTP, NCI, 2023).
# Values joined by “and” are separate entries in the source; they are usually repeats but may differ in a detail not shown here. Identical values can stand only once.
# Test system: OVCAR-5 complex spheroids with HUVEC/MSC, viability, % test/control
# Experiment: Anticancer human tumor OVCAR-5 cell line growth inhibition [AhR];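 further: spheroids exposed to compounds for 7 days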;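 on viability, T/C: 100% = DMSO vehicle control wells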
# Details: for viability, T/C: stronger effect = lower value
# Outline: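 Spheroids combined tumor cells with HUVEC endothelial cells and human MSCs as stroma. AhR antagonists were paired with standard or investigational drugs, each dosed in half-log steps down from near clinical Cmax, or from 10 microM where Cmax was unknown.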
# [1] = curve of first compound, second compound 0.1 µM
# [2] = curve of first compound, second compound 0.316 µM
# [3] = curve of first compound, second compound 1 µM
# [4] = curve of first compound, second compound 3.16 µM
# [5] = curve of first compound, second compound 10 µM
# [6] = second compound 0.1 µM, first compound 0.0316 µM
# [7] = second compound 0.1 µM, first compound 0.1 µM
# [8] = second compound 0.1 µM, first compound 0.316 µM
# [9] = second compound 0.1 µM, first compound 1 µM
# [10] = second compound 0.1 µM, first compound 3.16 µM
# [11] = second compound 0.1 µM, first compound 10 µM
# [12] = second compound 0.316 µM, first compound 0.0316 µM
# [13] = second compound 0.316 µM, first compound 0.1 µM
# [14] = second compound 0.316 µM, first compound 0.316 µM
# [15] = second compound 0.316 µM, first compound 1 µM
# [16] = second compound 0.316 µM, first compound 3.16 µM
# [17] = second compound 0.316 µM, first compound 10 µM
# [18] = second compound 1 µM, first compound 0.0316 µM
# [19] = second compound 1 µM, first compound 0.1 µM
# [20] = second compound 1 µM, first compound 0.316 µM
# [21] = second compound 1 µM, first compound 1 µM
# [22] = second compound 1 µM, first compound 3.16 µM
# [23] = second compound 1 µM, first compound 10 µM
# [24] = second compound 3.16 µM, first compound 0.0316 µM
# [25] = second compound 3.16 µM, first compound 0.1 µM
# [26] = second compound 3.16 µM, first compound 0.316 µM
# [27] = second compound 3.16 µM, first compound 1 µM
# [28] = second compound 3.16 µM, first compound 3.16 µM
# [29] = second compound 3.16 µM, first compound 10 µM
# [30] = second compound 10 µM, first compound 0.0316 µM
# [31] = second compound 10 µM, first compound 0.1 µM
# [32] = second compound 10 µM, first compound 0.316 µM
# [33] = second compound 10 µM, first compound 1 µM
# [34] = second compound 10 µM, first compound 3.16 µM
# [35] = second compound 10 µM, first compound 10 µM
structure (smiles),measurement,setting,value
O=C(c1cc(Cc2n[nH]c(=O)c3ccccc23)ccc1F)N1CCN(C(=O)C2CC2)CC1 + CC(CO)NC(=O)c1cc(-c2ccc(Cl)cc2)nn(-c2cnn(C)c2)c1=O,IC50,[1],> 10000 nM
same,IC50,[2],> 10000 nM
same,IC50,[3],> 10000 nM
same,IC50,[4],> 10000 nM
same,IC50,[5],> 10000 nM
same,"viability, T/C",[6],112%
same,"viability, T/C",[7],106%
same,"viability, T/C",[8],107%
same,"viability, T/C",[9],102%
same,"viability, T/C",[10],102%
same,"viability, T/C",[11],98.3%
same,"viability, T/C",[12],111%
same,"viability, T/C",[13],112%
same,"viability, T/C",[14],108%
same,"viability, T/C",[15],107%
same,"viability, T/C",[16],106%
same,"viability, T/C",[17],102%
same,"viability, T/C",[18],109%
same,"viability, T/C",[19],114%
same,"viability, T/C",[20],115%
same,"viability, T/C",[21],112%
same,"viability, T/C",[22],113%
same,"viability, T/C",[23],107%
same,"viability, T/C",[24],104%
same,"viability, T/C",[25],104%
same,"viability, T/C",[26],102%
same,"viability, T/C",[27],101%
same,"viability, T/C",[28],97.5%
same,"viability, T/C",[29],94.8%
same,"viability, T/C",[30],99.4%
same,"viability, T/C",[31],101%
same,"viability, T/C",[32],96.6%
same,"viability, T/C",[33],99.4%
same,"viability, T/C",[34],94.4%
same,"viability, T/C",[35],90.7%
CC[C@@]1(O)C(=O)OCc2c1cc1n(c2=O)Cc2cc3c(CN(C)C)c(O)ccc3nc2-1 + Cc1ccccc1N=Nc1ccc(NC(=O)c2ccnn2C)c(C)c1,IC50,[1],22.9 nM
same,IC50,[2],24.3 nM
same,IC50,[3],25.3 nM
same,IC50,[4],27.5 nM
same,IC50,[5],28.2 nM
same,"viability, T/C","second compound 0.1 µM, first compound 0.000316 µM",103%
same,"viability, T/C","second compound 0.1 µM, first compound 0.001 µM",102%
same,"viability, T/C","second compound 0.1 µM, first compound 0.00316 µM",94%
same,"viability, T/C","second compound 0.1 µM, first compound 0.01 µM",79.2%
same,"viability, T/C",[6],34.7%
same,"viability, T/C",[7],42.4%
same,"viability, T/C","second compound 0.316 µM, first compound 0.000316 µM",105%
same,"viability, T/C","second compound 0.316 µM, first compound 0.001 µM",103%
same,"viability, T/C","second compound 0.316 µM, first compound 0.00316 µM",96%
same,"viability, T/C","second compound 0.316 µM, first compound 0.01 µM",84.6%
same,"viability, T/C",[12],36.5%
same,"viability, T/C",[13],42.7%
same,"viability, T/C","second compound 1 µM, first compound 0.000316 µM",112%
same,"viability, T/C","second compound 1 µM, first compound 0.001 µM",108%
same,"viability, T/C","second compound 1 µM, first compound 0.00316 µM",104%
same,"viability, T/C","second compound 1 µM, first compound 0.01 µM",89.3%
same,"viability, T/C",[18],38.7%
same,"viability, T/C",[19],42.4%
same,"viability, T/C","second compound 3.16 µM, first compound 0.000316 µM",113%
same,"viability, T/C","second compound 3.16 µM, first compound 0.001 µM",110%
same,"viability, T/C","second compound 3.16 µM, first compound 0.00316 µM",108%
same,"viability, T/C","second compound 3.16 µM, first compound 0.01 µM",92%
same,"viability, T/C",[24],41%
same,"viability, T/C",[25],47.4%
same,"viability, T/C","second compound 10 µM, first compound 0.000316 µM",100%
same,"viability, T/C","second compound 10 µM, first compound 0.001 µM",104%
same,"viability, T/C","second compound 10 µM, first compound 0.00316 µM",101%
same,"viability, T/C","second compound 10 µM, first compound 0.01 µM",89%
same,"viability, T/C",[30],40.9%
same,"viability, T/C",[31],50.4%
Nc1ncn(C2CC(O)C(CO)O2)c(=O)n1 (configuration not stated),"viability, T/C",compound 0.00316 µM,101% and 99.1% and 104%
same,"viability, T/C",compound 0.01 µM,97.8% and 103% and 98.1%
same,"viability, T/C",compound 0.0316 µM,94% and 94.8% and 88.5%
same,"viability, T/C",compound 0.1 µM,82.6% and 82.3% and 82%
same,"viability, T/C",compound 0.316 µM,76% and 70.8% and 68.8%
same,"viability, T/C",compound 1 µM,65% and 59.9% and 63.7%
same,IC50,curve of compound,> 1000 nM
CC1(C)CCC(CN2CCN(c3ccc(C(=O)NS(=O)(=O)c4ccc(NCC5CCOCC5)c([N+](=O)[O-])c4)c(Oc4cnc5[nH]ccc5c4)c3)CC2)=C(c2ccc(Cl)cc2)C1 + Cc1ccccc1N=Nc1ccc(NC(=O)c2ccnn2C)c(C)c1,IC50,[1],> 10000 nM
same,IC50,[2],> 10000 nM
same,IC50,[3],> 10000 nM
same,IC50,[4],> 10000 nM
same,IC50,[5],> 10000 nM
same,"viability, T/C",[6],102%
same,"viability, T/C",[7],101%
same,"viability, T/C",[8],102%
same,"viability, T/C",[9],95.7%
same,"viability, T/C",[10],99.2%
same,"viability, T/C",[11],52.7%
same,"viability, T/C",[12],102%
same,"viability, T/C",[13],106%
same,"viability, T/C",[14],106%
same,"viability, T/C",[15],103%
same,"viability, T/C",[16],105%
same,"viability, T/C",[17],53%
same,"viability, T/C",[18],102%
same,"viability, T/C",[19],113%
same,"viability, T/C",[20],107%
same,"viability, T/C",[21],112%
same,"viability, T/C",[22],104%
same,"viability, T/C",[23],56.9%
same,"viability, T/C",[24],103%
same,"viability, T/C",[25],115%
same,"viability, T/C",[26],108%
same,"viability, T/C",[27],112%
same,"viability, T/C",[28],109%
same,"viability, T/C",[29],54.2%
same,"viability, T/C",[30],109%
same,"viability, T/C",[31],107%
same,"viability, T/C",[32],105%
same,"viability, T/C",[33],108%
same,"viability, T/C",[34],105%
same,"viability, T/C",[35],57.3%
